Measured values as given in the CheMixHub viscosity set.
“And” between values parts separate entries of the source, which are not always exact repeats. Equal values may be shown once. ± gives the uncertainty stated by the source.

Structure (SMILES)	viscosity (293.15 K, 100 kPa)	viscosity (293.15 K, 101 kPa)	viscosity (298.15 K, 100 kPa)	viscosity (298.15 K, 101 kPa)	viscosity (303.15 K, 100 kPa)	viscosity (303.15 K, 101 kPa)	viscosity (313.15 K, 100 kPa)	viscosity (313.15 K, 101 kPa)	viscosity (323.15 K, 101 kPa) [mPa·s]	viscosity (308.15 K, 100 kPa)	viscosity (318.15 K, 100 kPa) [mPa·s]	further results
C1CCC2CCCCC2C1 (configuration not stated)	2.507 ± 0.013 mPa·s	2.453 ± 0.052 mPa·s	2.272 ± 0.013 mPa·s	2.223 ± 0.047 mPa·s and 2.171 ± 0.029 mPa·s	2.07 ± 0.012 mPa·s	2.026 ± 0.043 mPa·s	1.741 ± 0.012 mPa·s	1.703 ± 0.036 mPa·s	1.454 ± 0.031			viscosity (308.15 K, 101 kPa): 1.854 ± 0.039 mPa·s; viscosity (318.15 K, 101 kPa): 1.571 ± 0.033 mPa·s; viscosity (323.15 K, 100 kPa): 1.457 ± 0.011 mPa·s
C=COCCCC												viscosity (308.15 K, 101 kPa): 0.374 ± 0.017 mPa·s
CC(=O)OC1CCCCC1												viscosity (300 K, 101 kPa): 1.95 ± 0.03 mPa·s; viscosity (310 K, 101 kPa): 1.61 ± 0.03 mPa·s; viscosity (320 K, 101 kPa): 1.36 ± 0.02 mPa·s
CC12CC3CC(C)(C1)CC(C)(C3)C2	2.641 ± 0.11 mPa·s and 2.61 ± 0.11 mPa·s		2.376 ± 0.097 mPa·s and 2.35 ± 0.1 mPa·s		2.147 ± 0.087 mPa·s		1.781 ± 0.072 mPa·s and 1.76 ± 0.07 mPa·s			1.951 ± 0.079 mPa·s	1.633 ± 0.066	viscosity (323.15 K, 100 kPa): 1.502 ± 0.061 mPa·s
CC=Cc1ccc(O)c(OC)c1				26.7 ± 0.32 mPa·s								
CCCCCCC	0.379 ± 0.006 mPa·s	0.4002 ± 0.015 mPa·s and 0.408 ± 0.011 mPa·s	0.358 ± 0.006 mPa·s		0.376 ± 0.038 mPa·s and 0.337 ± 0.006 mPa·s		0.301 ± 0.006 mPa·s and 0.34 ± 0.005 mPa·s	0.331 ± 0.02 mPa·s and 0.332 ± 0.009 mPa·s and 0.3432 ± 0.0076 mPa·s	0.3039 ± 0.012	0.342 ± 0.034 mPa·s and 0.318 ± 0.006 mPa·s		viscosity (293.17 K, 101 kPa): 0.409 ± 0.011 mPa·s; viscosity (293.2 K, 101.3 kPa): 0.4084 ± 0.0047 mPa·s; viscosity (296 K, 101.3 kPa): 0.395 ± 0.007 mPa·s and 0.397 ± 0.007 mPa·s; viscosity (298 K, 101.33 kPa): 0.3899 ± 0.0054 mPa·s; viscosity (303 K, 101.33 kPa): 0.374 ± 0.058 mPa·s; viscosity (303.15 K, 101.33 kPa): 0.403 ± 0.04 mPa·s and 0.381 ± 0.009 mPa·s; viscosity (308.15 K, 101.33 kPa): 0.363 ± 0.008 mPa·s; viscosity (313.2 K, 101.3 kPa): 0.3447 ± 0.0039 mPa·s; viscosity (318.15 K, 101 kPa): 0.326 ± 0.004 mPa·s and 0.314 ± 0.02 mPa·s and 0.3269 ± 0.0075 mPa·s; viscosity (318.15 K, 101.33 kPa): 0.317 ± 0.01 mPa·s; viscosity (323 K, 101.33 kPa): 0.308 ± 0.05 mPa·s; viscosity (323.1 K, 101.3 kPa): 0.3182 ± 0.0036 mPa·s
CCCCCCCC	0.547 ± 0.012 mPa·s and 0.512 ± 0.008 mPa·s	0.556 ± 0.007 mPa·s and 0.539 ± 0.014 mPa·s	0.517 ± 0.011 mPa·s and 0.48 ± 0.007 mPa·s		0.452 ± 0.007 mPa·s	0.482 ± 0.009 mPa·s	0.447 ± 0.01 mPa·s and 0.4 ± 0.006 mPa·s and 0.429 ± 0.026 mPa·s		0.4049 ± 0.0079	0.468 ± 0.01 mPa·s and 0.425 ± 0.007 mPa·s		viscosity (298.15 K, 101.32 kPa): 0.507 ± 0.007 mPa·s; viscosity (303.15 K, 101.33 kPa): 0.4865 ± 0.098 mPa·s and 0.479 ± 0.004 mPa·s (2×) and 0.479 ± 0.014 mPa·s; viscosity (308.16 K, 101.3 kPa): 0.4568 ± 0.0049 mPa·s; viscosity (318.15 K, 101.33 kPa): 0.403 ± 0.012 mPa·s; viscosity (318.16 K, 101 kPa): 0.4138 ± 0.0037 mPa·s; viscosity (323.15 K, 100 kPa): 0.385 ± 0.016 mPa·s
CCCCCCCCCCCCCC			2.15 ± 0.069 mPa·s			1.895 ± 0.11 mPa·s and 1.895 ± 0.17 mPa·s	1.612 ± 0.053 mPa·s					viscosity (293.15 K, 101.33 kPa): 2.282 ± 0.23 mPa·s and 2.292 ± 0.031 mPa·s and 2.292 ± 0.027 mPa·s; viscosity (298 K, 101.33 kPa): 2.074 ± 0.026 mPa·s; viscosity (298.15 K, 101.33 kPa): 2.088 ± 0.016 mPa·s and 2.091 ± 0.016 mPa·s and 2.025 ± 0.047 mPa·s; viscosity (298.15 K, 103 kPa): 2.048 ± 0.043 mPa·s; viscosity (303.15 K, 101.33 kPa): 1.864 ± 0.19 mPa·s; viscosity (308.15 K, 101 kPa): 1.715 ± 0.1 mPa·s and 1.715 ± 0.15 mPa·s; viscosity (308.15 K, 103 kPa): 1.685 ± 0.042 mPa·s; viscosity (313.15 K, 101.33 kPa): 1.548 ± 0.16 mPa·s; viscosity (318.15 K, 101.33 kPa): 1.356 ± 0.032 mPa·s; viscosity (318.15 K, 103 kPa): 1.413 ± 0.041 mPa·s; viscosity (323.15 K, 101.33 kPa): 1.314 ± 0.13 mPa·s
CCCCCCCCCCCCCCCCCCC								3.49 ± 0.03 mPa·s				
CCCCCCCCCCCCCC[P+](CCCCCC)(CCCCCC)CCCCCC.N#C[N-]C#N	603 ± 35 mPa·s		442 ± 23 mPa·s	440 ± 23 mPa·s	331 ± 16 mPa·s	328 ± 16 mPa·s	196 ± 8 mPa·s	196 ± 8 mPa·s	123 ± 5	253 ± 11 mPa·s	155 ± 5	viscosity (323.15 K, 100 kPa): 124 ± 4 mPa·s
CCCCCO	4.057 ± 0.25 mPa·s and 4.155 ± 0.051 mPa·s and 3.964 ± 0.047 mPa·s	3.939 ± 0.036 mPa·s and 3.99 ± 0.08 mPa·s and 4.06 ± 0.05 mPa·s	3.512 ± 0.21 mPa·s and 3.595 ± 0.044 mPa·s						1.784 ± 0.017		2.085 ± 0.026	viscosity (293.15 K, 101.33 kPa): 3.675 ± 0.37 mPa·s and 4.109 ± 0.41 mPa·s and 4.109 ± 0.052 mPa·s; viscosity (298.15 K, 101.3 kPa): 3.302 ± 0.04 mPa·s; viscosity (303.15 K, 101.3 kPa): 3 ± 0.082 mPa·s and 2.832 ± 0.032 mPa·s; viscosity (308.15 K, 101.3 kPa): 2.449 ± 0.03 mPa·s; viscosity (313.15 K, 101.3 kPa): 2.3 ± 0.063 mPa·s and 2.344 ± 0.027 mPa·s; viscosity (318 K, 101.3 kPa): 2.075 ± 0.21 mPa·s; viscosity (318.15 K, 101.3 kPa): 2.066 ± 0.055 mPa·s; viscosity (323 K, 101.3 kPa): 1.853 ± 0.19 mPa·s
CCI				0.577 ± 0.008 mPa·s								
CCOCCOCCO		4.291 ± 0.079 mPa·s and 3.626 ± 0.022 mPa·s		3.799 ± 0.05 mPa·s and 3.686 ± 0.077 mPa·s and 3.278 ± 0.02 mPa·s		3.186 ± 0.075 mPa·s and 2.862 ± 0.018 mPa·s		2.511 ± 0.073 mPa·s				viscosity (308.15 K, 101 kPa): 2.839 ± 0.038 mPa·s and 2.859 ± 0.074 mPa·s and 2.507 ± 0.016 mPa·s; viscosity (318.15 K, 101 kPa): 2.358 ± 0.031 mPa·s and 2.269 ± 0.073 mPa·s
CCn1cc[n+](CCOC)c1.O=S(=O)([N-]S(=O)(=O)C(F)(F)F)C(F)(F)F	43.63 ± 0.49 mPa·s		35.49 ± 0.4 mPa·s		29.33 ± 0.33 mPa·s		20.86 ± 0.23 mPa·s			24.58 ± 0.28 mPa·s	18.03 ± 0.2	
CN(C)C=O	0.855 ± 0.025 mPa·s		0.82 ± 0.024 mPa·s and 0.843 ± 0.035 mPa·s				0.687 ± 0.02 mPa·s and 0.688 ± 0.008 mPa·s			0.729 ± 0.021 mPa·s and 0.718 ± 0.016 mPa·s	0.652 ± 0.019	viscosity (293.15 K, 101.33 kPa): 0.9248 ± 0.03 mPa·s and 0.88 ± 0.13 mPa·s; viscosity (298.15 K, 101.3 kPa): 0.792 ± 0.021 mPa·s; viscosity (298.15 K, 101.33 kPa): 0.83 ± 0.12 mPa·s; viscosity (302.15 K, 101 kPa): 1.032 ± 0.21 mPa·s; viscosity (303 K, 101.33 kPa): 0.758 ± 0.016 mPa·s; viscosity (303.15 K, 101.3 kPa): 0.7675 ± 0.0099 mPa·s and 0.7524 ± 0.02 mPa·s; viscosity (303.15 K, 101.33 kPa): 0.78 ± 0.12 mPa·s; viscosity (305.15 K, 101 kPa): 0.979 ± 0.2 mPa·s; viscosity (308 K, 101.33 kPa): 0.721 ± 0.016 mPa·s; viscosity (308.15 K, 101.3 kPa): 0.7077 ± 0.019 mPa·s; viscosity (308.15 K, 101.33 kPa): 0.74 ± 0.11 mPa·s; viscosity (313.15 K, 101.3 kPa): 0.6644 ± 0.018 mPa·s; viscosity (313.15 K, 101.33 kPa): 0.7143 ± 0.024 mPa·s and 0.7 ± 0.11 mPa·s; viscosity (318 K, 101.3 kPa): 0.6348 ± 0.024 mPa·s; viscosity (318 K, 101.33 kPa): 0.6348 ± 0.039 mPa·s; viscosity (318.15 K, 101.33 kPa): 0.67 ± 0.1 mPa·s; viscosity (323.15 K, 101.33 kPa): 0.63 ± 0.09 mPa·s
